Measured values published in PubChem BioAssay (NCI).
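Compound exposure: 48 hours, 5 concentrations, 96-well plates. GI50 = concentration required for 50% inhibition of growth. At the TGI there is no net growth.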

Tests used:
Experiment in all cases: DTP human tumour cell line panel, 48 h
[1] = test system: CAKI-1 renal
[2] = test system: SNB-19 CNS
[3] = test system: SF-268 CNS
[4] = test system: HCT-15 colon
[5] = test system: UACC-62 melanoma
[6] = test system: HT29 colon
[7] = test system: NCI-H460 lung
[8] = test system: OVCAR-8 ovarian
[9] = test system: NCI-H226 lung
[10] = test system: 786-0 renal
[11] = test system: NCI-H522 lung
[12] = test system: M14 melanoma
[13] = test system: K-562 leukemia
[14] = test system: UO-31 renal
[15] = test system: U251 CNS
[16] = test system: SNB-75 CNS
[17] = test system: SK-MEL-5 melanoma
[18] = test system: OVCAR-5 ovarian
[19] = test system: SF-295 CNS
[20] = test system: HOP-92 NSCLC
[21] = test system: BT-549 breast
[22] = test system: MCF7 breast
[23] = test system: EKVX NSCLC
[24] = test system: DU-145 prostate
[25] = test system: T-47D breast
[26] = test system: UACC-257 melanoma
[27] = test system: MDA-MB-435
[28] = test system: MDA-MB-231 breast
[29] = test system: RXF 393 renal
[30] = test system: SR leukemia
[31] = test system: IGROV1 ovarian
[32] = test system: LOX IMVI melanoma
[33] = test system: HOP-62 NSCLC
[34] = test system: OVCAR-4 ovarian
[35] = test system: HCC-2998 colon
[36] = test system: NCI-H23 lung
[37] = test system: KM12 colon
[38] = test system: SF-539 CNS
[39] = test system: A549 NSCLC
[40] = test system: NCI/ADR-RES ovarian
[41] = test system: HCT-116 colon
[42] = test system: COLO 205 colon
[43] = test system: SW-620 colon
[44] = test system: SK-MEL-2 melanoma
[45] = test system: TK-10 renal
[46] = test system: OVCAR-3 ovarian
[47] = test system: MOLT-4 leukemia
[48] = test system: A498 renal
[49] = test system: PC-3 prostate
[50] = test system: SN12C renal
[51] = test system: ACHN renal
[52] = test system: RPMI-8226 leukemia
[53] = test system: SK-MEL-28 melanoma
[54] = test system: MALME-3M melanoma
[55] = test system: HS 578T breast
[56] = test system: CCRF-CEM leukemia
[57] = test system: HL-60(TB) leukemia
[58] = test system: SK-OV-3 ovarian

## Nc1[nH]nc2nc(-c3cc(Cl)ccc3Cl)cc(-c3ccc(F)cc3)c12
[1]
  GI50: 26.9 µM
  TGI: > 100 µM
[2]
  GI50: 35.7 µM
  TGI: > 100 µM
[3]
  GI50: 18.2 µM
  TGI: 43.6 µM
[4]
  GI50: 28.5 µM
  TGI: > 100 µM
[5]
  GI50: 16 µM
  TGI: 32.4 µM
[6]
  GI50: 32.5 µM
  TGI: > 100 µM
[7]
  GI50: 19.7 µM
  TGI: 58 µM
[8]
  GI50: 14.3 µM
  TGI: 59.5 µM
[9]
  GI50: 22.6 µM
  TGI: 60.6 µM
[10]
  GI50: 23.7 µM
  TGI: 59.2 µM
[11]
  GI50: 14.4 µM
  TGI: 31.5 µM
[12]
  GI50: 27.9 µM
  TGI: 49.8 µM
[13]
  GI50: 43.9 µM
  TGI: > 100 µM
[14]
  GI50: 13.8 µM
  TGI: 34.7 µM
[15]
  GI50: 21.6 µM
  TGI: 44.8 µM
[16]
  GI50: 51.5 µM
  TGI: > 100 µM
[17]
  GI50: 16.6 µM
  TGI: 34.1 µM
[18]
  GI50: 24.3 µM
  TGI: 59.8 µM
[19]
  GI50: 25.7 µM
  TGI: 73.4 µM
[20]
  GI50: 14.5 µM
  TGI: 30 µM
[21]
  GI50: 14.3 µM
  TGI: 31.3 µM
[22]
  GI50: 11.8 µM
  TGI: 37.5 µM
[23]
  GI50: 17.5 µM
  TGI: 58.3 µM
[24]
  GI50: 23.6 µM
  TGI: 53.8 µM
[25]
  GI50: 20.2 µM
  TGI: > 100 µM
[26]
  GI50: 25.2 µM
  TGI: 68.3 µM
[27]
  GI50: 30.3 µM
  TGI: 56 µM
[28]
  GI50: 19.9 µM
  TGI: 61.1 µM
[29]
  GI50: 18.3 µM
  TGI: 42.3 µM
[30]
  GI50: 18 µM
  TGI: 69.2 µM
[31]
  GI50: 19 µM
  TGI: 48.7 µM
[32]
  GI50: 19.3 µM
  TGI: 38 µM
[33]
  GI50: 22.7 µM
  TGI: 47.8 µM
[34]
  GI50: 39.2 µM
  TGI: > 100 µM
[35]
  GI50: 19.1 µM
  TGI: 36.1 µM
[36]
  GI50: 28.8 µM
  TGI: 72.1 µM
[37]
  GI50: 22.6 µM
  TGI: 58 µM
[38]
  TGI: 21.1 µM
[39]
  GI50: 22.9 µM
  TGI: 87.3 µM
[40]
  GI50: 23 µM
  TGI: 59.9 µM
[41]
  GI50: 18.9 µM
  TGI: 39.7 µM
[42]
  GI50: 16.5 µM
  TGI: 34.1 µM
[43]
  GI50: 25.4 µM
  TGI: 68.7 µM
[44]
  GI50: 21.2 µM
  TGI: 43.2 µM
[45]
  GI50: 52.9 µM
  TGI: > 100 µM
[46]
  GI50: 24 µM
  TGI: 65.4 µM
[47]
  GI50: 23.2 µM
  TGI: > 100 µM
[48]
  GI50: 20.4 µM
  TGI: 42.2 µM
[49]
  GI50: 28.3 µM
  TGI: 90.3 µM
[50]
  GI50: 20.4 µM
  TGI: 38.6 µM
[51]
  GI50: 31.9 µM
  TGI: > 100 µM
[52]
  GI50: 18.4 µM
  TGI: 50.5 µM
[53]
  GI50: 36.9 µM
  TGI: > 100 µM
[54]
  GI50: 27.2 µM
  TGI: 59.3 µM
[55]
  GI50: 24.1 µM
  TGI: 53.7 µM
[56]
  GI50: 0.813 µM
  TGI: 11.3 µM

## O=C1/C(=C\c2ccc(F)cc2)CN(C(=O)c2ccccc2F)C/C1=C\c1ccc(F)cc1
[1]
  GI50: 2.65 µM
  TGI: 9.16 µM
[2]
  GI50: 1.58 µM
  TGI: 3.55 µM
[3]
  GI50: 2.02 µM
  TGI: 4.97 µM
[4]
  GI50: 1.05 µM
  TGI: 2.58 µM
[5]
  GI50: 1.46 µM
  TGI: 3.05 µM
[6]
  GI50: 0.373 µM
  TGI: 1.35 µM
[7]
  GI50: 2.51 µM
  TGI: 6.71 µM
[8]
  GI50: 1.72 µM
  TGI: 5.14 µM
[9]
  GI50: 3.41 µM
  TGI: 12.8 µM
[10]
  GI50: 1.61 µM
  TGI: 3.17 µM
[11]
  GI50: 1.61 µM
  TGI: 3.15 µM
[12]
  GI50: 1.51 µM
  TGI: 3.44 µM
[13]
  GI50: 0.414 µM
[14]
  GI50: 1.49 µM
  TGI: 2.94 µM
[15]
  GI50: 1.27 µM
  TGI: 2.58 µM
[16]
  GI50: 2.64 µM
  TGI: 10.9 µM
[17]
  GI50: 1.45 µM
  TGI: 2.83 µM
[18]
  GI50: 1.88 µM
  TGI: 4.04 µM
[19]
  GI50: 2.08 µM
  TGI: 5.02 µM
[20]
  GI50: 1.86 µM
  TGI: 5.63 µM
[21]
  GI50: 1.85 µM
  TGI: 3.41 µM
[22]
  GI50: 0.436 µM
  TGI: 1.68 µM
[24]
  GI50: 2.07 µM
  TGI: 4.15 µM
[25]
  GI50: 2.28 µM
  TGI: 7.02 µM
[26]
  GI50: 1.71 µM
  TGI: 3.47 µM
[27]
  GI50: 0.547 µM
  TGI: 2.06 µM
[28]
  GI50: 1.83 µM
  TGI: 3.95 µM
[29]
  GI50: 1.78 µM
  TGI: 3.54 µM
[30]
  GI50: 0.32 µM
  TGI: 3.03 µM
[31]
  GI50: 1.82 µM
  TGI: 3.62 µM
[32]
  GI50: 0.28 µM
  TGI: 0.957 µM
[33]
  GI50: 2.04 µM
  TGI: 4.66 µM
[34]
  GI50: 2.33 µM
  TGI: 6.53 µM
[35]
  GI50: 1.81 µM
  TGI: 3.32 µM
[36]
  GI50: 2.09 µM
  TGI: 4.91 µM
[37]
  GI50: 0.371 µM
  TGI: 1.32 µM
[38]
  GI50: 1.72 µM
  TGI: 3.2 µM
[39]
  GI50: 2.59 µM
  TGI: 8.75 µM
[40]
  GI50: 2.8 µM
  TGI: 16.4 µM
[41]
  GI50: 0.228 µM
  TGI: 0.571 µM
[42]
  GI50: 1.86 µM
  TGI: 3.54 µM
[43]
  GI50: 0.428 µM
  TGI: 1.73 µM
[44]
  GI50: 2.04 µM
  TGI: 4.61 µM
[45]
  GI50: 1.97 µM
  TGI: 4.27 µM
[57]
  GI50: 1.11 µM
  TGI: 4.57 µM
[46]
  GI50: 1.67 µM
  TGI: 3.11 µM
[47]
  GI50: 1.72 µM
  TGI: 7.49 µM
[48]
  GI50: 2.02 µM
  TGI: 6.71 µM
[49]
  GI50: 1.62 µM
  TGI: 4.89 µM
[58]
  GI50: 2.23 µM
  TGI: 4.69 µM
[50]
  GI50: 1.68 µM
  TGI: 3.37 µM
[51]
  GI50: 1.61 µM
  TGI: 3.6 µM
[52]
  GI50: 0.137 µM
  TGI: 0.817 µM
[53]
  GI50: 1.82 µM
  TGI: 3.36 µM
[54]
  GI50: 2 µM
  TGI: 4.09 µM
[55]
  GI50: 3.66 µM
  TGI: 20.3 µM
[56]
  GI50: 0.736 µM
  TGI: 4.97 µM
